The source of these data is article PMC9743095 (Journal of Medicinal Chemistry, 2022).

The nature of one data set: Plasma stability. Particulars: dog plasma, with or without EHNA. It counts as in vitro ADME, beagle dog. As to the method:
Plasma samples (10 mL of human, beagle dog, mouse, or rats from Sera laboratories, U.K.) were treated with and without 1 μM of EHNA, after which 20 μM concentration of each drug (3′dA and ProTides) was added and incubated for 2 h at 37 °C with 5% CO2. After incubation, 100 μL of each sample was taken and 300 μL of 100% methanol was added and left on ice for 30 min. After 30 min, the mixture was centrifuged (14 000 rpm, 4 °C, 10 min), and the supernatant was transferred to new tubes and evaporated under SpeedVac. Then, the dried extract was reconstituted in 100 μL of 10% acetonitrile, then transferred to LC-MS vials, and 10 μL was injected into the UPLC-MS/MS system.

Data set [1] in a line: Metabolic stability in cryopreserved human hepatocytes. In kind it is in vitro ADME. The settings on record: for hepatocyte CLint at 1 μM: pH 7.3, read-out: Clint (intrinsic clearance). The procedure: The assay was contracted and performed by Cerep (Seattle, WA Laboratories, 15318 N. E. 95th Street Redmond, WA, 98052) according to the published procedure (Cerep ref 1432). Pooled cryopreserved hepatocytes were thawed, washed, and resuspended in Krebs–Heinslet buffer (pH 7.3). The reaction was initiated by adding the test compound (1 μM final concentration) into cell suspension and incubated in a final volume of 100 μL on a flat-bottom 96-well plate for 0 and 60 min, respectively, at 37 °C/5% CO2. The reaction was stopped by adding 100 μL of acetonitrile into the incubation mixture. Samples were then mixed gently and briefly on a plate shaker, transferred completely to a 0.8 mL V-bottom 96-well plate, and centrifuged at 2550g for 15 min at room temperature. Each supernatant (150 μL) was transferred to a clean cluster tube, followed by high-performance liquid chromatography–tandem mass spectrometry (HPLC-MS/MS) analysis on a Thermo Electron triple quadrupole system.

The target of the next data set is T1, carboxypeptidase Y (Saccharomyces cerevisiae, UniProt P00729).
T1 construct: purchased Sigma-Aldrich
T1 sequence (P00729 112-532, species assumed): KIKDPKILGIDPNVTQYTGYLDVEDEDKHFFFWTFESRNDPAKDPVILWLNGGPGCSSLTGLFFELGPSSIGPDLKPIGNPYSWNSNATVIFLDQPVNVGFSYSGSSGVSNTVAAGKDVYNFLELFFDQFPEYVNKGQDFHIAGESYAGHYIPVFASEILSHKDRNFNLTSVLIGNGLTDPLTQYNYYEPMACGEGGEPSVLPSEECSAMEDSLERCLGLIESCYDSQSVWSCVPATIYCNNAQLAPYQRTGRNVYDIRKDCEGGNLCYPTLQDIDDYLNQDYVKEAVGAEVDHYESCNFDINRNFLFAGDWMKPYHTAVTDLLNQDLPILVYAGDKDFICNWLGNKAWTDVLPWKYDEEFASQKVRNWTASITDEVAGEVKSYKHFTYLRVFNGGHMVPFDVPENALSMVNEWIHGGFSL
The data set can be described thus: Carboxypeptidase Y assay (31P NMR). The settings on record: acetone-d6/Trizma buffer pH 7.6, 31P NMR. In kind it is in vitro ADME. The procedure: ProTides 7a (5 mg, ±0.008 mmol) was dissolved in 150 μL of acetone-d6, and 300 μL of trizma buffer (pH 7.6) was added. A ^31P NMR (202 MHz, 64–128 scans) was conducted at this stage as a reference (blank, t = 0). To this mixture, 130 μL of a stock solution of carboxypeptidase enzyme (purchased from Sigma-Aldrich, >50 unit/mg, dissolved in trizma buffer 7.6 pH to a concentration of 50 units/mL, EC 3.4.16.1) was added. ^31P NMR (128 scans) were carried out with 1 min of delay between experiments for 14 h at 25 °C.

Data set [2] has as its system CEM, K562, HL-60, and CRL cell lines. Kind of data set: Intracellular 3′-dATP quantification, cell lines together. In kind it is cell-based, human. The procedure:
HL-60 (ATCC CCL-240), K562 (ATCC CCL-243), CCRF-CEM (ATCC CRM-CCL-119), and RL (ATCC CRL-2261) leukemia cell lines were obtained from the American Type Culture Collection (ATCC), Middlesex. HL-60 and K562 cell lines are deoxynucleotidyl transferase-negative (TdT^–ve), whereas CCRF-CEM cell line is TdT^+ve. They were cultured in RPMI-1640 medium (Sigma-Aldrich, U.K.), which were supplemented with 10% fetal bovine serum (FBS) (PAA Laboratories), 1% amphotericin B (5.5 mL), and 1% penicillin/streptomycin (5.5 mL) (PAA Laboratories) and grown in flasks at 37 °C in an incubator with 5% CO2. […]
The analytes were resolved using an ultraperformance liquid chromatography system (Accela UPLC, Thermo Scientific, U.K.) equipped with a Biobasic A × 5 μm, 50 × 2.1 mm column (Thermo Electron Corporation, Murrieta, CA) and mobile phase consisting of a mixture of 10 mM NH4Ac in ACN/H2O (30:70 v/v), pH 6.0 (A), and 1 mM NH4Ac in ACN/H2O (30:70 v/v), pH 10.5 (B). […] Eluting compounds of interest were detected using a triple-stage quadrupole Vantage mass spectrometry system (Thermo Scientific, U.K.) equipped with an electrospray ion source. Samples were analyzed in the Multiple Reaction Monitoring, negative-ion modes at a spray voltage of 3000 V. Nitrogen was used as sheath and auxiliary gas at flow rates of 50 and 20 arbitrary units, respectively. […]

The subject of data set [3] is advanced solid tumors or lymphoma. Also noted: method as in PMID 34497073. Particulars: preliminary findings, phase I/II trial; cited from earlier work.
Where [4] appears, read: pH 7.3, read-out: t1/2 (half-life).

Each structure is given as a SMILES string. Where two headings read alike, the source gives them in different places.

Take `Nc1ncnc2c1ncn2[C@@H]1O[C@H](CO)C[C@H]1O` [3′-dA, 3′-Deoxyadenosine, reference compound]: the stability in plasma result in the data set “Plasma stability” is on record as “like those found in human plasma”.
`C[C@H](NP(=O)(OC[C@@H]1C[C@@H](O)[C@H](n2cnc3c(N)ncnc32)O1)Oc1ccccc1)C(=O)OCc1ccccc1` (stereo partly drawn) [Compound 7a, (Rp)- and (Sp)-3′-Deoxyadenosine 5′-O-phenyl-(benzoxy-L-alaninyl)-phosphate]: in data set [1] (pooled cryopreserved hepatocytes), the hepatocyte CLint at 1 μM amounted to 22.6 µL/min/1e6 cells. For the same compound, the half-life at 1 h, 1 µM in data set [1] (pooled cryopreserved hepatocytes, pH 7.3, read-out: t1/2 (half-life)) stood at 48.1 min. Besides, the “time to complete conversion into aminoacyl phosphoramidate ester II” value on carboxypeptidase Y is recorded as 1 h. In data set [2], the “effect of hENT1, AK, and ADA inhibitors on intracellular 3′-dATP levels” value is “did not affect”. The stability in plasma result in the data set “Plasma stability” is reported as “like those found in human plasma”. In addition, in data set [3], the anticancer activity result is “encouraging signals of anticancer activity” and the tolerability entry is given as “well tolerated”.
`CCOC(=O)CCc1ccccc1OP(=O)(N[C@@H](C)C(=O)OCc1ccccc1)OC[C@@H]1C[C@@H](O)[C@H](n2cnc3c(N)ncnc32)O1` (some centres unmarked) [Compound 7e]: the hepatocyte CLint at 1 μM in data set [1] was 41.1 µL/min/1e6 cells. Further, in data set [1] (setting [4]), the half-life at 1 μM amounted to 26 min and the half-life at 1 h, 1 µM was 25.6 min.
